# Source: PubChem BioAssay AID298 (DTP/NCI, 2004)
# Records with an inconclusive call do not appear.
# System: MX-1 breast xenograft, intrarenal, nude mice, tumor weight
# Experiment: NCI In Vivo Anticancer Drug Screen. Data for tumor model Human Mammary Carcinoma MX-1 Xenograft (intrarenal inoculation) in NU/NU BALB/C (nude) mice
# Conditions: endpoint: mean tumor weight change, higher = larger tumour
# Protocol: The antitumor activity of compounds was measured in mice bearing transplantable tumors. Survival or tumor size were measured and the results are expressed as the measurement made in the treated group (T) divided by the measurement made in the vehicle treated control group (C). The tumor model used in this assay is Human Mammary Carcinoma MX-1 Xenograft (intrarenal inoculation) in NU/NU BALB/C (nude) mice
# [1] = dose: 37.5 mg/kg/injection, schedule: Q04DX003 (sc), vehicle: saline
# [2] = dose: 75.0 mg/kg/injection, schedule: Q04DX003 (sc), vehicle: saline
# [3] = dose: 150.0 mg/kg/injection, schedule: Q04DX003 (ip), vehicle: Klucel (hydroxypropylcellulose) (HPC)
# [4] = dose: 300.0 mg/kg/injection, schedule: Q04DX003 (ip), vehicle: Klucel (hydroxypropylcellulose) (HPC)
# [5] = dose: 600.0 mg/kg/injection, schedule: Q04DX003 (ip), vehicle: Klucel (hydroxypropylcellulose) (HPC)
# [6] = dose: 1200.0 mg/kg/injection, schedule: Q04DX003 (ip), vehicle: Klucel (hydroxypropylcellulose) (HPC)
smiles,measurement,setting,value
CCC(C(=O)O)C(=O)O.[NH2-].[NH2-].[Pt+2],T/C,[1],-27 % of control
same,T/C,"dose: 37.5 mg/kg/injection, schedule: Q04DX003 (sc), vehicle: suspension in saline",-100 % of control
same,T/C,[2],-100 % of control
same,T/C,"dose: 75.0 mg/kg/injection, schedule: Q04DX003 (sc), vehicle: suspension in saline",-100 % of control
same,T/C,"dose: 150.0 mg/kg/injection, schedule: Q04DX003 (sc), vehicle: saline",-100 % of control
same,T/C,"dose: 150.0 mg/kg/injection, schedule: Q04DX003 (sc), vehicle: suspension in saline",-100 % of control
CN=C(NC)c1ccc(NC(=O)/C=C\c2ccc(/C=C/C(=O)Nc3ccc(C(=NC)NC)cc3)cc2)cc1,T/C,"dose: 6.25 mg/kg/injection, schedule: Q04DX003 (ip), vehicle: Klucel (hydroxypropylcellulose) (HPC)",89 % of control
N=C1CCCS1,T/C,"dose: 18.75 mg/kg/injection, schedule: Q04DX003 (sc), vehicle: saline",108 % of control
same,T/C,[1],91 % of control
same,T/C,[2],124 % of control
Cn1nnc2c(C(N)=O)ncn2c1=O,T/C,"dose: 75.0 mg/kg/injection, schedule: Q04DX003 (ip), vehicle: suspension in saline",68 % of control
same,T/C,"dose: 150.0 mg/kg/injection, schedule: Q04DX003 (ip), vehicle: saline",24 % of control
same,T/C,"dose: 150.0 mg/kg/injection, schedule: Q04DX003 (ip), vehicle: suspension in saline",15 % of control
same,T/C,"dose: 300.0 mg/kg/injection, schedule: Q04DX003 (ip), vehicle: saline",-68 % of control
same,T/C,"dose: 300.0 mg/kg/injection, schedule: Q04DX003 (ip), vehicle: suspension in saline",-100 % of control
CCCCCCn1c(SC)nc(COC(=O)NC)c1COC(=O)NC,T/C,"dose: 33.7 mg/kg/injection, schedule: Q04DX003 (ip), vehicle: saline",6 % of control
same,T/C,"dose: 67.5 mg/kg/injection, schedule: Q04DX003 (ip), vehicle: saline",-37 % of control
same,T/C,"dose: 135.0 mg/kg/injection, schedule: Q04DX003 (ip), vehicle: saline",-86 % of control
same,T/C,"dose: 270.0 mg/kg/injection, schedule: Q04DX003 (ip), vehicle: saline",-100 % of control
CCn1c(-c2ccc(OC(C)=O)cc2)c(C)c2cc(OC(C)=O)ccc21,T/C,[3],68 % of control
same,T/C,[4],61 % of control
same,T/C,[5],63 % of control
same,T/C,[6],47 % of control
CC1=CCCC2C1(C)CCC(C)C2(C)Cc1cc(O)ccc1O (stereo not drawn),T/C,"dose: 12.5 mg/kg/injection, schedule: Q04DX003 (ip), vehicle: Klucel (hydroxypropylcellulose) (HPC)",84 % of control
same,T/C,"dose: 25.0 mg/kg/injection, schedule: Q04DX003 (ip), vehicle: Klucel (hydroxypropylcellulose) (HPC)",76 % of control
same,T/C,"dose: 50.0 mg/kg/injection, schedule: Q04DX003 (ip), vehicle: Klucel (hydroxypropylcellulose) (HPC)",86 % of control
same,T/C,"dose: 100.0 mg/kg/injection, schedule: Q04DX003 (ip), vehicle: Klucel (hydroxypropylcellulose) (HPC)",66 % of control
COc1cccc2c1C(=O)c1c(O)c3c(c(O)c1C2=O)C[C@@](O)(C(=O)CO)C[C@@H]3OC1CC(N)C(O)C(C)O1 (stereo partly drawn),T/C,"dose: 2.0 mg/kg/injection, schedule: Q04DX003 (ip), vehicle: water",33 % of control
same,T/C,"dose: 4.0 mg/kg/injection, schedule: Q04DX003 (ip), vehicle: water",7 % of control
same,T/C,"dose: 8.0 mg/kg/injection, schedule: Q04DX003 (ip), vehicle: water",-88 % of control
CN1C2CCC1C(Br)C(=O)C2 (stereo not drawn),T/C,"dose: 100.0 mg/kg/injection, schedule: Q04DX003 (ip), vehicle: saline",100 % of control
same,T/C,"dose: 200.0 mg/kg/injection, schedule: Q04DX003 (ip), vehicle: saline",66 % of control
[Cl][Pt+2][Cl].[NH-]C1CCC1.[NH2-],T/C,"dose: 6.25 mg/kg/injection, schedule: Q04DX003 (sc), vehicle: saline",-94 % of control
same,T/C,"dose: 12.5 mg/kg/injection, schedule: Q04DX003 (sc), vehicle: saline",-97 % of control
CCOC1NC(=O)Oc2ccccc21 (stereo not drawn),T/C,[3],80 % of control
same,T/C,[4],74 % of control
same,T/C,[5],86 % of control
same,T/C,[6],79 % of control
